# Read-outs that look alike come from different tables or passages of the source.
# Tests used:
# [1] = system: K. pneumoniae BAA-2146 (NDM-1, FQ-R); assay: MIC on K. pneumoniae (Example 5); assay type: cell-based; details: Klebsiella pneumoniae, BAA2146, read-out: MIC K. pneumoniae BAA-2146 (NDM-1, FQ-R)
# Procedure: MIC Values for all compounds were measured against a selection of bacterial strains. The MICs of 4-oxoquinolizines against a selection of Gram-negative and Gram-positive bacterial strains are shown in Table 13 in comparison with known antibiotics.
# [2] = system: GN48 Klebsiella pneumoniae; assay: Chequerboard synergy with polymyxin B (FICI); assay type: cell-based
# Excerpt: (§1) A chequerboard technique was used to identify possible synergistic or antagonistic interactions between the 4-oxoquinolizines compounds, levofloxacin and polymyxin B. Levofloxacin was included as a control. […] Final dilutions were made in Mueller-Hinton broth, the specific test medium used for MIC determinations according to CLSI guidelines (CLSI. Methods for Dilution Antimicrobial Susceptibility Tests for Bacteria That Grow Aerobically; Approved Standard-Eighth Edition (2009). CLSI Document M07-A8. CLSI, Wayne, Pa. 19087-1898, USA.). The test medium used was a cation-adjusted Mueller-Hinton Broth II (Becton Dickinson UK Ltd., Oxford Science Park, Oxford, UK, OX4 4DQ).
# (§2) The compounds 2, 33 and 35, as well as levofloxacin were tested in combination with polymyxin B on the following isolates: GN31 Acinetobacter baumannii—antibiotic susceptible clinical isolate, GN52 Acinetobacter baumannii—levofloxacin resistant clinical isolate, GN56 Acinetobacter baumannii—levofloxacin resistant clinical isolate, GN48 Klebsiella pneumoniae—NCTC 13443—NDM-1-metallo-R-lactamase and GN10 Pseudomonas aeruginosa—ATCC 27853—antibiotic susceptible reference isolate. All isolates are from the collection maintained at Quotient Bioresearch Ltd., Cambridge, UK.
# (§3) The MIC values for the compounds and polymyxin B and levofloxacin were determined by broth microdilution following CLSI guidelines, and the MICs of agents in combination were determined as described by Pillai et.al (Pillai S K, Moellering R C Jr, Eliopoulis G M; Antimicrobial Combinations in Antibiotics in Laboratory Medicine 5th Edition (V. Lorian Ed) (2005) p 365-440). Initial MIC results were used to determine the microtiter plate patterns for the chequerboards. A suitable doubling dilution concentration range was selected such that the combination antibiotic range was at least two concentrations above and four concentrations below the MIC for each isolate. A fixed range of 0.008 to 8 mg/L was tested for polymyxin B except in the case of A. baumannii GN31 where a range of 0.004 to 4 mg/L was tested when in combination with the compounds 2, 33 and 35 as well as levofloxacin.
# From the raw data, fractional inhibitory concentration indices (FICI) were determined for the compounds of the invention and levofloxacin together with polymyxin B for each isolate as follows: FICI=FICX+FICY Where,
# FICX=concentration of the combination antibiotic in a particular row÷MIC of the combination drug alone
# FICY=MIC of polymyxin B in combination÷MIC of the polymyxin B alone
# Additionally isobolograms were created to represent the same data visually. Here, the MIC of polymyxin B was plotted against every concentration of the combination antibiotic up to the MIC.
# [3] = system: GN10 Pseudomonas aeruginosa; assay: Pre-chequerboard MIC, broth microdilution (Example 6); assay type: cell-based; details: ATCC 27853 / GN10, ATCC 27853, antibiotic susceptible
# Excerpt: as §1, §2, §3
# [4] = system: GN48 Klebsiella pneumoniae; assay: as above; assay type: cell-based; details: GN48 / NCTC 13443, NCTC 13443, NDM-1
# Excerpt: as §1, §2, §3
# [5] = system: GN52 Acinetobacter baumannii; assay: as above; assay type: cell-based; details: levofloxacin resistant clinical isolate
# Excerpt: as §1, §2, §3
# [6] = system: GN56 Acinetobacter baumannii; assay: as above; assay type: cell-based; details: levofloxacin resistant clinical isolate
# Excerpt: as §1, §2, §3
# [7] = system: GN31 Acinetobacter baumannii; assay: as above; assay type: cell-based; details: antibiotic susceptible clinical isolate
# Excerpt: as §1, §2, §3
# S. pneumoniae 1027 = assay: MIC, panel of quinolone-resistant strains (CLSI); assay type: cell-based; details: Streptococcus pneumoniae, LEV R
# B. anthracis = assay: microbe, parasite or virus in culture; assay type: cell-based; details: Bacillus anthracis, read-out: MIC B. anthracis
# A. baumannii A473 [8] = assay: MIC determination for Acinetobacter strains (Example 3); assay type: cell-based; details: LEV R, CIP R, MRP R, IMP R, AMK R, TET R
# Pseudomonas ssp PER-1 = assay: MIC, panel of quinolone-resistant strains (CLSI); assay type: cell-based, Pseudomonas spp; details: PER1, CIP R, ESBL
# A. baumannii A390 [9] = assay: MIC determination for Acinetobacter strains (Example 3); assay type: cell-based; details: LEV R, CIP R, MRP R, IPM I, AMK R, TET I
# [10] = system: Acinetobacter sp. (H064200250); assay: Preliminary MBC without and with sub-inhibitory polymyxin B (Example 4); assay type: cell-based; details: Acinetobacter, without polymyxin B, preliminary MBC, read-out: MBC without PB
# Summary of the method: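 Incubation 18-20 h, 37° C. MBC = lowest conc. with ~90% fewer colonies than positive control (single/no colonies).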
# [11] = system: resistant strains of A. baumannii and one strain of Acinetobacter sp.; assay: MIC without and with sub-inhibitory polymyxin B, whole panel / MIC ranges (Example 4; also strains not listed separately); assay type: cell-based; details: Acinetobacter baumannii
# [12] = system: Acinetobacter spp. H064200250; assay: MIC determination for Acinetobacter strains (Example 3); assay type: cell-based, Acinetobacter sp.; details: LEV R, CIP R, MRP R, IMP I
# P. aeruginosa 143-3-03 = assay: MIC, panel of quinolone-resistant strains (CLSI); assay type: cell-based; details: Pseudomonas aeruginosa, 143303; CIP I, POL R
# A. baumannii A472 [13] = assay: MIC without and with sub-inhibitory polymyxin B (Example 4); assay type: cell-based, Acinetobacter baumannii; details: Acinetobacter baumannii, A472, A. baumannii A472; without polymyxin B; 1st experiment; read-out: MIC without PB
# E. coli IMP = assay: microbe, parasite or virus in culture; details: Escherichia coli, read-out: MIC E. coli IMP
# A. baumannii A473 [14] = assay: MIC without and with sub-inhibitory polymyxin B (Example 4); assay type: cell-based, Acinetobacter baumannii; details: Acinetobacter baumannii, A473, A. baumannii A473, without polymyxin B, read-out: MIC without PB
# E. coli CTX-M-15 = assay: MIC, panel of quinolone-resistant strains (CLSI); assay type: cell-based; details: Escherichia coli, CTXM15; CIP R, ESBL
# Klebsiella ssp KPC-3 = assay: MIC, panel of quinolone-resistant strains (CLSI); assay type: cell-based, Klebsiella spp; details: KPC3, CIP R, ESBL
# B. abortus = assay: microbe, parasite or virus in culture; assay type: cell-based; details: Brucella abortus, read-out: MIC B. abortus
# [15] = system: Acinetobacter sp. (H064200250); assay: MIC without and with sub-inhibitory polymyxin B (Example 4); assay type: cell-based; details: Acinetobacter, without polymyxin B, read-out: MIC without PB
# A. Baumanii OXA-51 = assay: MIC, panel of quinolone-resistant strains (CLSI); assay type: cell-based; details: Acinetobacter baumannii; CIP R, ESBL
# E. coli 2906 = assay: MIC, panel of quinolone-resistant strains (CLSI); assay type: cell-based; details: Escherichia coli, CIP R
# A. baumannii J2 [16] = assay: MIC determination for Acinetobacter strains (Example 3); assay type: cell-based; details: LEV R, CIP R
# E. faecium 19434 = assay: MIC, standard panel of Gram-positive and Gram-negative bacteria (CLSI); assay type: cell-based, Enterococcus faecium; details: Enterococcus faecium, 19434; CAMHB; read-out: MIC E. faecium 19434
# A. baumannii J2 [17] = assay: MIC without and with sub-inhibitory polymyxin B (Example 4); assay type: cell-based, Acinetobacter baumannii; details: Acinetobacter baumannii, J2, A. baumannii J2; without polymyxin B; 1st experiment; read-out: MIC without PB
# A. baumannii ATCC 19606 = assay: Preliminary MBC without and with sub-inhibitory polymyxin B (Example 4); assay type: cell-based, Acinetobacter baumannii; details: Acinetobacter baumannii, ATCC19606, read-out: MBC without PB
# A. baumannii A489 = assay: MIC without and with sub-inhibitory polymyxin B (Example 4); assay type: cell-based, Acinetobacter baumannii; details: Acinetobacter baumannii, A489, A. baumannii A489; without polymyxin B; 2nd experiment; visual reading; read-out: MIC without PB
# S. aureus 101 = assay: MIC, standard panel of Gram-positive and Gram-negative bacteria (CLSI); assay type: cell-based, Staphylococcus aureus; details: Staphylococcus aureus, 101; CAMHB; read-out: MIC S. aureus 101
# P. aeruginosa 1388-3-02 = assay: MIC, panel of quinolone-resistant strains (CLSI); assay type: cell-based; details: Pseudomonas aeruginosa, 1388302; CIP R, POL R
# E. coli 25922 = assay: MIC, standard panel of Gram-positive and Gram-negative bacteria (CLSI); assay type: cell-based, Escherichia coli; details: Escherichia coli, 25922; CAMHB; read-out: MIC E. coli 25922
# B. pseudomallei = assay: microbe, parasite or virus in culture; assay type: cell-based; details: Burkholderia pseudomallei, read-out: MIC B. pseudomallei
# A. baumannii A390 [18] = assay: MIC without and with sub-inhibitory polymyxin B (Example 4); assay type: cell-based, Acinetobacter baumannii; details: Acinetobacter baumannii, A390, A. baumannii A390, without polymyxin B, read-out: MIC without PB
# A. baumannii A329 = assay: as above; assay type: cell-based, Acinetobacter baumannii; details: Acinetobacter baumannii, A329, A. baumannii A329; without polymyxin B; 2nd experiment; visual reading; read-out: MIC without PB
# A. baumannii A401 = assay: as above; assay type: cell-based, Acinetobacter baumannii; details: Acinetobacter baumannii, A401, A baumannii A 401; without polymyxin B; 2nd experiment; visual reading; read-out: MIC without PB
# F. tularensis = assay: microbe, parasite or virus in culture; assay type: cell-based; details: Francisella tularensis, read-out: MIC F. tularensis
# B. thailandensis = assay: microbe, parasite or virus in culture; assay type: cell-based, Burkholderia thailandensis; details: Burkholderia thailandensis, read-out: MIC90 B. thailandensis
# A. baumannii A472 [19] = assay: MIC determination for Acinetobacter strains (Example 3); assay type: cell-based; details: LEV R, CIP R, MRP I, IMP I, AMK R, TET R
# [20] = Acinetobacter spp. H064200250, 1st experiment
smiles,measurement,setting,value
"Cc1c(-c2ccc3[nH]ncc3c2)ccn2c(=O)c(C(=O)[O-])cc(C3CC3)c12.[K+] [Compound 35 K salt, potassium 8-(1H-indazol-5-yl)-1-cyclopropyl-9-methyl-4-oxo-4H-quinolizine-3-carboxylate]",MIC,[1],> 8 µg/mL
"Cc1c(-c2ccc3[nH]ncc3c2)ccn2c(=O)c(C(=O)O)cc(C3CC3)c12 [Compound 35, 8-(1H-indazol-5-yl)-1-cyclopropyl-9-methyl-4-oxo-quinolizine-3-carboxylic acid]",Combination drug MIC alone,[2],16 µg/mL
same,Synergy,[2]; combination with polymyxin B,partial synergy
same,MIC,[3],0.25 µg/mL
same,MIC,[4],16 µg/mL
same,MIC,[5],2 µg/mL
same,MIC,[6],8 µg/mL
same,MIC,[7],0.03 µg/mL
"Cc1c(-c2ccc(CN)cc2)ccn2c(=O)c(C(=O)O)cc(C3CC3)c12 [Compound 5, 8-(4-aminomethyl-phenyl)-1-cyclopropyl-9-methyl-4-oxo-quinolizine-3-carboxylic acid]",MIC,S. pneumoniae 1027,2 µg/mL
same,MIC,B. anthracis,0.125 µg/mL
same,MIC,A. baumannii A473 [8],8 µg/mL
same,MIC,Pseudomonas ssp PER-1,8 µg/mL
same,MIC,A. baumannii A390 [9],8 µg/mL
same,MBC,"[10]; Acinetobacter spp. H064200250 (OXA51), 2nd experiment",16 µg/mL
same,MBC,[10]; [20],8 µg/mL
same,MIC,"[11]; A. baumannii A14, without polymyxin B, 1st experiment, read-out: MIC without PB",32 µg/mL
same,MIC,"[11]; NCTC13301, A. baumannii NCTC 13301, without polymyxin B, 2nd experiment, visual reading, read-out: MIC without PB",8 µg/mL
same,MIC,"[11]; read-out: MIC range without PB 01-10-2008 n = 8, without polymyxin B, 1st experiment, 8 strains",2 to 32 µg/mL
same,MIC,"[11]; without polymyxin B, 2nd experiment, 11 strains, read-out: MIC range without PB 14-10-2008 n = 11",4 to 16 µg/mL
same,MIC,[12],16 µg/mL
same,MIC,P. aeruginosa 143-3-03,4 µg/mL
same,MIC,A. baumannii A472 [13],8 µg/mL
same,MIC,E. coli IMP,< 0.008 µg/mL
same,MIC,A. baumannii A473 [14]; 1st experiment,8 µg/mL
same,MIC,"A. baumannii A473 [14]; 2nd experiment, visual reading",8 µg/mL
same,MIC,E. coli CTX-M-15,16 µg/mL
same,MIC,Klebsiella ssp KPC-3,8 µg/mL
same,MIC,B. abortus,1 µg/mL
same,MIC,"[15]; Acinetobacter spp. H064200250 (OXA51), 2nd experiment, visual reading",16 µg/mL
same,MIC,[15]; [20],16 µg/mL
same,MIC,A. Baumanii OXA-51,8 µg/mL
same,MIC,E. coli 2906,16 µg/mL
same,MIC,A. baumannii J2 [16],8 µg/mL
same,MIC,E. faecium 19434,2 µg/mL
same,MIC,A. baumannii J2 [17],8 µg/mL
same,MBC,A. baumannii ATCC 19606,0.125 µg/mL
same,MIC,A. baumannii A489,8 µg/mL
same,MIC,S. aureus 101,4 µg/mL
same,MIC,P. aeruginosa 1388-3-02,16 µg/mL
same,MIC,E. coli 25922,< 0.03 µg/mL
same,MIC,B. pseudomallei,2 µg/mL
same,MIC,A. baumannii A390 [18]; 1st experiment,8 µg/mL
same,MIC,"A. baumannii A390 [18]; 2nd experiment, visual reading",8 µg/mL
same,MIC,A. baumannii A329,8 µg/mL
same,MIC,A. baumannii A401,8 µg/mL
same,MIC,F. tularensis,0.125 µg/mL
same,MIC90,B. thailandensis,0.39 µg/mL
same,MIC,A. baumannii A472 [19],8 µg/mL
"Cc1c(-c2ccc(N)nc2)ccn2c(=O)c(C(=O)[O-])cc(C3CC3)c12.[K+] [Compound 33 K salt, potassium 8-(6-amino-pyridin-3-yl)-1-cyclopropyl-9-methyl-4-oxo-4H-quinolizine-3-carboxylate]",MIC,[1],> 8 µg/mL
"Cc1c(-c2cc(F)c(N)cc2F)ccn2c(=O)c(C(=O)[O-])cc(C3CC3)c12.[K+] [Compound 2 K salt, Potassium 8-(4-amino-2,5-difluoro-phenyl)-1-cyclopropyl-9-methyl-4-oxo-4H-quinolizine-3-carboxylate]",MIC,[1],> 8 µg/mL
"Cc1c(-c2ccc(N)nc2)ccn2c(=O)c(C(=O)O)cc(C3CC3)c12 [Compound 33, 8-(6-amino-3-pyridyl)-1-cyclopropyl-9-methyl-4-oxo-quinolizine-3-carboxylic acid]",MIC,[3],0.5 µg/mL
same,MIC,[4],16 µg/mL
same,MIC,[5],2 µg/mL
same,MIC,[6],16 µg/mL
same,MIC,[7],0.03 µg/mL

# Source: patent US10155021B2, “Antimicrobial 4-oxoquinolizines” (Emergent Product Development Gaithersburg Inc., priority 2011, dated 2018)
